# Source: patent US12043590B2, “Co-crystals comprising levothyroxine and a dicarboxylic acid” (Sandoz AG, priority 2018, dated 2024)
# How the values were obtained:
# Thermal stability (TGA) = assay type: physicochemical; details: for Temperature range of desolvation event (TGA): TGA 20 to 235° C., 10 K/min, nitrogen purge, event = loss of EtOH, H2O or lactic acid
# Procedure: Each sample (approximately 4±0.0005 mg using a UM3 ultramicrobalance, Mettler, Greifensee, CH) was weighed into an unsealed platinum sample holder (50 microlitre). The samples were heated from 20 to 235° C. at a rate of 10 K/min. Nitrogen (sample purge rate 20 mL/min and balance purge rate 40 mL/min)) was used as purge gas.
# [1] = Chemical stability: exposure to ambient air at 40° C. and 0% RH, followed by 1H-NMR
# Procedure: A ^1H-NMR spectrum of each substance was recorded at the beginning of the test period, at 3 weeks and finally at 6 weeks. Spectra were recorded on a Bruker Avance-300 Spectrometer (Spectrometer frequency: 300 MHz). Each sample for analysis was prepared by dissolving about 20 mg of solid in 600 microlitres of d6-DMSO. All samples were analysed immediately after preparation.
# Thermal stability (DSC) = assay type: physicochemical; details: for Onset temperature of decomposition peak (DSC) / Peak maximum temperature of decomposition peak (DSC) / Tpeak of desolvation event (first endothermic peak maximum, DSC): heating rate 20 K/min; for Onset temperature of decomposition peak (DSC) / Peak maximum temperature of decomposition peak (DSC): co-crystal: second endotherm, concomitant melting and decomposition, sodium pentahydrate: exotherm; for Tpeak of desolvation event (first endothermic peak maximum, DSC): DSC 20 to 235° C., dry nitrogen purge, event = loss of EtOH, H2O or lactic acid; for Stability against temperature stress compared to levothyroxine sodium pentahydrate (DSC conclusion): DSC analysis
# Procedure: Each sample (approximately 4±0.0005 mg using a UM3 ultramicrobalance, Mettler, Greifensee, CH) was weighed into an aluminum pan (25 microlitre) and sealed with a cover, which was perforated by a needle. Dry nitrogen was used as the purge gas (purge rate: 20 mL/min). The samples were heated from 20 to 235° C. at a heating rate of 20 K/min.
# [2] = Hamad et al., Pharm Dev Technol 2015; 20(3): 314-319; cited from earlier work
# [3] = TGA 10 K/min, up to about 120° C.
# [4] = listed as L-tartaric acid co-crystal
# [5] = listed as L-tartaric acid L-lactic acid co-crystal
SMILES,"Mass loss up to about 120° C. (TGA), in words (Thermal stability (TGA); [3])",Temperature range of desolvation event (TGA) (Thermal stability (TGA)),"Chemical stability under the applied stress conditions (1H-NMR) ([1]; ambient air (oxygen about 20.9 volume %), 6 weeks, spectra at start, 3 and 6 weeks)","1H-NMR spectrum change after 3 weeks ([1]; ambient air, 3 weeks)","1H-NMR spectrum change after 6 weeks ([1]; ambient air, 6 weeks)",Onset temperature of decomposition peak (DSC) (Thermal stability (DSC)),Peak maximum temperature of decomposition peak (DSC) (Thermal stability (DSC)),Chemical degradation on exposure to dry conditions in the presence of molecular oxygen [2],Temperature range of desolvation event (TGA) (Thermal stability (TGA); [4]),"Tpeak of desolvation event (first endothermic peak maximum, DSC) (Thermal stability (DSC))","Tpeak of desolvation event (first endothermic peak maximum, DSC) (Thermal stability (DSC); [4])",Stability against temperature stress compared to levothyroxine sodium pentahydrate (DSC conclusion) (Thermal stability (DSC)),Mass loss up to about 120° C. (TGA) (Thermal stability (TGA); [3]),Temperature range of desolvation event (TGA) (Thermal stability (TGA); [5]),"Tpeak of desolvation event (first endothermic peak maximum, DSC) (Thermal stability (DSC); [5])"
"N[C@@H](Cc1cc(I)c(Oc2cc(I)c(O)c(I)c2)c(I)c1)C(=O)[O-].[Na+] [levothyroxine sodium pentahydrate, Levothyroxine sodium pentahydrate, reference compound]",significant weight loss,~30-120 °C,chemically unstable,additional peaks become evident,become even more intense,about 202 °C,about 205 °C,significant degradation,,,,,,,
N[C@@H](Cc1cc(I)c(Oc2cc(I)c(O)c(I)c2)c(I)c1)C(=O)O [levothyroxine L-tartaric acid co-crystal],only a slight mass loss,150 to 170 °C,,,,about 180 °C,about 197 °C,,~150-170 °C,about 165 °C,165 °C,more stable against temperature stress,,,
N[C@@H](Cc1cc(I)c(Oc2cc(I)c(O)c(I)c2)c(I)c1)C(=O)O [levothyroxine L-tartaric acid L-lactic acid co-crystal],,150 to 170 °C,,,,,,,,about 162 °C,,more stabe against temperature stress,about 0.5 weight-%,~150-170 °C,162 °C
